From US9517988B2 (Sichuan Haisco Pharmaceutical Co., Ltd., priority 2013, dated 2016)

Assays:
[1] = Pharmacokinetic analysis with prodrugs in rats; format: in vivo, SD rats; details: male, Sprague-Dawley, rat, plasma
Method: 3 male SD rats, each weighing 180 to 240 g, were fasted overnight with water access. After a single intravenous administration of a prodrug at 10 mg/kg to rats, the plasma concentrations of the prodrug and the active form were each measured by LC-MS/MS, and the pharmacokinetic parameters were analyzed.

[2] = Efficacy experiment on rats with prodrugs; format: in vivo; details: both sexes, Sprague-Dawley, rat, in vivo, intravenous, SD rats; for LD50: tail vein, non-linear fitting
Method: (§1) This experiment selected SD rats, each weighing 180 to 200 g. The rats were randomized, with 10 animals per group, half male and half female. […] The time of administration, time of loss of the righting reflex, time of recovery of the righting reflex, and time of walking were recorded. Adverse effects shown by the rats after administration were also recorded.
(§2) Time of loss of the righting reflex: the righting reflex is lost; a rat made lying on its back can maintain the lying for a period of 60 s;
(§3) Time of recovery of the righting reflex: the righting reflex ability is restored; a rat made lying on its back rights in less than 2 s;
(§4) Time of walking: spontaneous forwarding moving occurs, and muscle tension of the limbs recovers.
(§5) Using GraphPad Prism 5, ED50 and LD50 values were calculated from a non-linear fitting of number of anesthetic or dead animals resulting from various doses.

SD rats = assay: Efficacy experiment on rats with prodrugs; format: in vivo; details: for ED50: Rattus norvegicus, non-linear fitting; for ED50 / Anesthesia induction time / Anesthesia maintenance time: SD rats, tail vein
Method: as §1, §2, §3, §4, §5

[3] = Righting reflex experiment on mice with prodrugs; format: in vivo; details: both sexes, ICR, mouse, in vivo; mice, intravenous injection, prodrugs in physiological saline
Method: (§6) After adapting to the laboratory environment, the SPF-grade ICR mice were fasted for 12 hours.

ICR mice [4] = assay: Righting reflex experiment on mice with prodrugs; format: in vivo; details: for ED50: Mus musculus, prodrugs formulated with physiological saline, read-out: ED50; for ED50 / Anesthesia induction time / Anesthesia maintenance time / MTD: mice; for ED50 / Anesthesia induction time / Anesthesia maintenance time: intravenous injection; for TI: therapeutic index, LD50/ED50, mice
Method: as §6

[5] = Pharmacokinetic experiment on rats; format: in vivo, SD rats; details: male, Sprague-Dawley, rat, plasma; Intravenous Injection into Rats (1 mg/kg)
Method: 3 male SD rats, each weighing 180 to 240 g, were fasted overnight with water access. A 1 mL/kg solution of the compound was formulated with 10% DMA, 20% solutol HS-15 (30%, w/v) and 70% physiological saline. Blood was sampled before administration and 2 min, 4 min, 8 min, 12 min, 15 min, 30 min, 1 h, 1.5 h and 2 h after administration. Blood samples were centrifuged at 5500 rpm for 10 min, and plasma was collected and stored at −40° C. 10 μl rat plasma from each time point was added to a 200 μl acetonitrile solution containing an internal standard and mixed, followed by 1-min vortexing and 18-min centrifugation at 3700 rpm. Then 70 μl supernatant was mixed with 70 μl water, and 10 μl of the mixture was analyzed by LC-MS/MS. Major pharmacokinetic parameters were subjected to a non-compartment analysis with the software WinNonlin 6.3.

[6] = Righting reflex experiment on mice; details: both, ICR, mouse, in vivo
Method: (§7) LD5 (5% lethal dose): dose required to cause 5% of mice to die in a test.
(§8) If a normal animal was able to immediately turn its body to normal upright position after being pushed over or made lying on its back, such a reflex was determined as the righting reflex. Otherwise, loss of the righting reflex and the time of loss were recorded, and a reflex recovery time was recorded when the animal restored the righting reflex. The period from finishing of drug administration until loss of the righting reflex was recorded as the anesthesia induction time, and the period from loss of the righting reflex until recovery of the righting reflex was recorded as the anesthesia maintenance time.
(§9) TI (therapeutic index, i.e. LD50/ED50), SI (safety index, i.e. LD5/ED95).
(§10) MTD (maximum tolerated dose): the maximum dose able to cause 100% to loss the righting index without death.
(§11) Indicators such as median effective dose (ED50), median lethal dose (LD50), therapeutic index (TI, i.e. LD50/ED50), safety index (SI, i.e. LD5/ED95), anesthesia induction time, anesthesia maintenance time, and maximum tolerated dose (MTD) were used to evaluate the effect and safety of anesthesia. […] After adapting to the laboratory environment, laboratory animals were fasted for 12 hours. On the next day, administration was carried out at 10 mg/kg body weight. Upon intravenous injection, the time of loss of the righting reflex was recorded. The period from finishing of drug administration until loss of the righting reflex was recorded as the anesthesia induction time, and the period from loss of the righting reflex until recovery of the righting reflex was recorded as the anesthesia maintenance time. The anesthesia induction time and the anesthesia maintenance time were used to indicate how strong an anesthetic effect was. Meanwhile, the dose required to cause a 7-min anesthesia (HD7) was measured and used to evaluate relative efficacy.

ICR mice [7] = assay: Righting reflex experiment on mice; details: for ED50: Mus musculus, iv; for Anesthesia induction time / Anesthesia maintenance time / HD7: mice; for Anesthesia induction time / Anesthesia maintenance time: intravenous injection; for Anesthesia induction time: end of administration until loss of righting reflex; for Anesthesia maintenance time: loss until recovery of righting reflex; for HD7: dose required to cause a 7-min anesthesia; for TI: therapeutic index, LD50/ED50, mice
Method: as §7, §8, §9, §10, §11

Beagle dogs = assay: Haemodynamic effects in Beagle dogs; format: in vivo; details: for Dose required to produce the same anesthetic effect: Beagle dogs, intravenous emulsion for injection
Method: Data of various indicators such as electrocardiogram, blood pressure and body temperature of the animals were continuously collected from about 3.5 hours before administration until 6 hours after administration.

GABAA receptors = details: CHO/GABAA; for EC50: enhancement of muscimol-induced GABAA receptor current, whole-cell patch-clamp
Method: Various concentrations of test compounds and muscimol were added together to CHO/GABAA, and the current mediated by GABAA receptors was measured. Two measurements were performed for each concentration to obtain an average response current. The enhancement of the current mediated by GABAA receptors was calculated by the following equation: Enhancement (%)=100*(Test Compound−Control)/Control
The Control group is the peak current amplitude induced by muscimol, and the Test Compound group is the peak current amplitude co-induced by the test compounds and muscimol. The enhancement (%) was calculated for each concentration, and EC50 was calculated by normalization.

[8] = injection; cited from earlier work
[9] = Intravenous Injection into Rats (10 mg/kg), analyte: prodrug

Row | Structure (SMILES) | MTD [2] | LD50 [2] | ED50 (SD rats) | Anesthesia induction time (SD rats) | Anesthesia maintenance time (SD rats) | ED50 (ICR mice [4]) | Anesthesia induction time (ICR mice [4]; prodrugs) | Anesthesia maintenance time (ICR mice [4]; prodrugs) | MTD (ICR mice [4]; prodrugs) | TI (ICR mice [4]; prodrugs) | AUC(0-t) [5] | clearance [5] | half-life [5] | ED50 (ICR mice [7]) | Anesthesia induction time (ICR mice [7]) | Anesthesia maintenance time (ICR mice [7]) | HD7 (ICR mice [7]) | TI (ICR mice [7]) | Dose required to produce the same anesthetic effect (Beagle dogs) | Effect on the ion channels of GABAA receptors (GABAA receptors; patch clamp) | also measured
1 | CC(C)c1cccc([C@H](C)C2CC2)c1OCOP(=O)([O-])[O-].[Na+].[Na+] [Compound 52] | 30 mg/kg | 61.4 mg/kg | 12.5 to 15 mg/kg | 92.8 s | 1946.3 s | 20.4 mg/kg | 73.0 s | 1830.2 s | 60.0 mg/kg | 4.2 | – | – | – | – | – | – | – | – | – | – | AUC(0-t) [1, 9]: 15.9 µg·h/mL; clearance [1, 9]: 0.63 L/h/kg; half-life [1, 9]: 24 min; LD50 [3]: 86.2 mg/kg; SI (ICR mice [4]; safety index, LD5/ED95, mice, prodrugs): 3.3
2 | CC(C)c1cccc([C@H](C)C2CC2)c1O [Compound 16, 2-[(1R)-1-cyclopropylethyl]-6-isopropyl-phenol] | – | – | – | – | – | – | – | – | – | – | 0.168 µg·h/mL | 6.3 L/h/kg | 30 min | 1.5 mg/kg | <15.0 s | 631.9 s | 3.5 mg/kg | 6.7 | 2 mg/kg | activating effect | MTD ([6]; intravenous): 6 mg/kg; LD50 ([6]; iv): 9.9 mg/kg; SI (ICR mice [7]; safety index, LD5/ED95, mice): 4.1; Effect on the heart rate and blood pressure (Beagle dogs; conscious Beagle dogs, Compound 16 2 mg/kg vs propofol 10 mg/kg): smaller than that of propofol; Activity compared with propofol (GABAA receptors; patch clamp): lower ED50; EC50 (GABAA receptors): 1.1 µM
3 | CC(C)c1cccc(C(C)C)c1O [Propofol, reference compound] | 12.5 mg/kg | 19.1 mg/kg | 5.7 mg/kg | 0.0 s | 652.0 s | 11.7 mg/kg | <15.0 s | 652.5 s | 20.0 mg/kg | 2.7 | 0.0819 µg·h/mL | 12.2 L/h/kg | 42 min | 11.7 mg/kg | <15.0 s | 652.5 s | 14.0 mg/kg | 2.7 | 10 mg/kg | activating effect | AUC(0-t) ([1]; iv, 10 mg/kg): 0.0819 µg·h/mL; clearance ([1]; iv, 10 mg/kg): 12.2 L/h/kg; half-life ([1]; iv, 10 mg/kg): 42 min; TI (SD rats; therapeutic index, LD50/ED50, rats): 3.4; EC50 (GABAA receptors): 5.3 µM; Patients on injections feeling certain pain or discomfort [8]: approximately 70%
